From PubChem BioAssay AID624452 (Sanford-Burnham Center for Chemical Genomics, 2012) come the findings set out here.

This data set has as its system human liver microsomes, compound remaining, LC-MS. Nature of the data set: metabolic stability in human liver microsomes, ADME assay, biochemical, with and without NADPH, LC-MS, set 2 (AID 624452).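 As to all read-outs here: compound left measured after 60 min microsomal incubation at 37 °C.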 Conditions: at 1 µM; for percent remaining without NADPH: measured here: stability without NADPH control. A general note: Liver microsomes are vesicles of endoplasmic reticulum, rich in cytochrome P450 enzymes.

With `COC(=O)c1ccccc1NC(=O)c1ccc(F)cc1`, the percent remaining with NADPH was 53.7% and the percent remaining without NADPH came to 100%.

Turning to `CC[C@H]1CN2CCc3cc(OC)c(OC)cc3[C@@H]2C[C@@H]1C[C@H]1NCCc2cc(OC)c(OC)cc21`, the percent remaining with NADPH stood at 45.4% and the percent remaining without NADPH is 89.3%.

Compound `O=C(O)CCC(NS(=O)(=O)c1ccc(-c2ccccc2)cc1)C(=O)O` (stereo not drawn) showed a percent remaining with NADPH of 75.8% and a percent remaining without NADPH of 74.2%.

For the compound `O=c1[nH]c2c(s1)C(c1cccnc1)C1C3CCC(C3)C1S2` (stereo not drawn), the percent remaining with NADPH worked out at 7.76% and the percent remaining without NADPH was 71.9%.

For `Cc1ccc(N2CCN(S(=O)(=O)N3CCCCC3)CC2)c(C)c1`, the percent remaining with NADPH amounted to 0.03% and the percent remaining without NADPH stood at 73.8%.

In turn, `Cc1ccc(-n2c(N)c(C#N)c(-c3ccccc3)c(C#N)c2=O)cc1` displayed a percent remaining with NADPH of 64% and a percent remaining without NADPH of 78.9%.

In turn, `Cc1cc(C)n(-c2nc(NCCCO)c3c4c(sc3n2)CCCC4)n1` registered a percent remaining with NADPH of 0.45% and a percent remaining without NADPH of 74%.

Turning to `Cc1cc2c(s1)c1cnn(Cc3ccccc3F)c(=O)c1n2C`, the percent remaining with NADPH came to 0.06% and the percent remaining without NADPH was determined as 64.4%.

Take `Cc1ccccc1N1CCN(c2ncnc3c2cnn3Cc2ccc(Cl)cc2)CC1`: the percent remaining with NADPH came to 30.9% and the percent remaining without NADPH was 58%.

Compound `c1ccc(-c2nnc(N3CCOCC3)nc2-c2ccccc2)cc1` yielded a percent remaining with NADPH of 31.1% and a percent remaining without NADPH of 79.8%.

In the case of `CN(C)C1=C(Cl)C(=O)N(c2ccc(Cl)c(Cl)c2)C1=O`, the percent remaining with NADPH was found to be 0.26% and the percent remaining without NADPH amounted to 36.9%.

Compound `CCCOc1ccc(-c2nc(OC)c3ccccc3n2)cc1` returned a percent remaining with NADPH of 48.3% and a percent remaining without NADPH of 81.5%.

For `COc1cccc(-c2nc(-c3ccc(NC(=O)Cc4ccccc4OC)cc3)no2)c1`, the percent remaining with NADPH worked out at 11.1% and the percent remaining without NADPH came out at 69.1%.

With `O=C(c1ccccn1)N(Cc1cccs1)C1(C(=O)NC2CCCCC2)CCCCC1`, the percent remaining with NADPH was 0.01% and the percent remaining without NADPH worked out at 70.6%.

Compound `Cc1ccnc(NC(=O)CCCOc2cc(=O)n(C)c3ccccc23)c1` gave a percent remaining with NADPH of 0.99% and a percent remaining without NADPH of 73.4%.

As for `CCCN(CCC)CCNC(=O)C1CCN(Cc2nc(-c3ccc(Cl)cc3)oc2C)CC1`, the percent remaining with NADPH turned out to be 13.5% and the percent remaining without NADPH stood at 75.6%.

On to `O=C(CSc1cccc2cccnc12)N1CCCC1`, for which the percent remaining with NADPH was determined as 47.2% and the percent remaining without NADPH was 78.5%.

Compound `CN(C)c1nc(N)nc(CSc2nnnn2-c2cccc3ccccc23)n1` came in with a percent remaining with NADPH of 0.13% and a percent remaining without NADPH of 77.6%.

The compound `Cn1nnnc1Sc1ncnc2scc(-c3ccccc3)c12` showed a percent remaining with NADPH of 28.1% and a percent remaining without NADPH of 67.5%.

`COc1ccc(OC)c(-c2nnc3n2N=C(c2ccc(OC)c(OC)c2)CS3)c1` came in with a percent remaining with NADPH of 5.35% and a percent remaining without NADPH of 79.3%.

For the compound `CCc1oc2ccccc2c1C(=O)c1cc(Br)c(O)c(Br)c1`, the percent remaining with NADPH stood at 20.3% and the percent remaining without NADPH came out at 75.6%.

Take `COc1ccc(Sc2ccc(NC(=O)c3ccccc3Cl)cc2C#N)cc1`: the percent remaining with NADPH was found to be 27.3% and the percent remaining without NADPH is 64.4%.

Consider `O=C1CCCC2=C1C1(CCCC1)N=C(Nc1nc3ccccc3o1)N2`, for which the percent remaining with NADPH stood at 11.2% and the percent remaining without NADPH was 78.1%.

On to `O=C(O)c1ccc(N2C(=O)/C(=C/c3ccc(-c4ccc([N+](=O)[O-])cc4)o3)C=C2c2ccccc2)cc1`, for which the percent remaining with NADPH came to 67.9% and the percent remaining without NADPH amounted to 74.3%.

As for `O=C1NCCCc2c1oc1ccc(O)cc21`, the percent remaining with NADPH is 62.1% and the percent remaining without NADPH came to 63%.

Regarding `Cc1ccc(S(=O)(=O)NCc2ccc(C(=O)NCCN(Cc3ccccc3)C(C)C)cc2)cc1`, the percent remaining with NADPH is 0.01% and the percent remaining without NADPH stood at 80.3%.

`CCCC(=O)Nc1cccc(NC(=O)c2ccccc2Br)c1` showed a percent remaining with NADPH of 46% and a percent remaining without NADPH of 71.2%.

On to `COc1ccc(C2CC(c3ccccc3)=NN2c2ccc(S(N)(=O)=O)cc2)cc1` (stereo not drawn), for which the percent remaining with NADPH is 59.6% and the percent remaining without NADPH came to 70%.

In the case of `COc1ccc(S(=O)(=O)n2nc(OC(=O)c3ccccc3)cc2N)cc1`, the percent remaining with NADPH was 52.9% and the percent remaining without NADPH turned out to be 65.4%.

In turn, `COc1ccc(CNCc2cccc3ccccc23)cc1` returned a percent remaining with NADPH of 0.21% and a percent remaining without NADPH of 70.7%.

`O=C(COC(=O)C12CC3CC(CC(C3)C1)C2)NCc1ccco1`: the percent remaining with NADPH was determined as 84.8% and the percent remaining without NADPH was found to be 100%.

For `CC1CCCN(C(C(=O)Nc2ccc3c(c2)OCCO3)c2ccccc2)C1` (stereo not drawn), the percent remaining with NADPH was determined as 4.43% and the percent remaining without NADPH is 79.7%.

`COc1ccc(CSc2nc(C)cc(=O)[nH]2)cc1` gave a percent remaining with NADPH of 41.4% and a percent remaining without NADPH of 68.6%.

As to `CCOC(=O)C(C)Oc1cccc2c(=O)n(CC(=O)Nc3ccc4c(c3)OCCO4)ccc12` (stereo not drawn), the percent remaining with NADPH came out at 68.7% and the percent remaining without NADPH was found to be 75.6%.

Regarding `CN(C)c1oc(-c2ccc(OCc3ccc(Cl)cc3)cc2)nc1C#N`, the percent remaining with NADPH was 35.5% and the percent remaining without NADPH worked out at 67.2%.

For the compound `O=C1C2CC=CCC2C(=O)N1c1n[nH]c(-c2ccccc2)n1` (stereo not drawn), the percent remaining with NADPH amounted to 66.9% and the percent remaining without NADPH came out at 71%.

Compound `CS(=O)(=O)c1ccc(C(=O)OCC(=O)NC23CC4CC(CC(C4)C2)C3)cc1[N+](=O)[O-]` showed a percent remaining with NADPH of 5.75% and a percent remaining without NADPH of 81%.

`COc1ccc(C2c3c(ncn(CCN4CCOCC4)c3=N)Oc3ccc4ccccc4c32)cc1OC` (stereo not drawn) returned a percent remaining with NADPH of 7.15% and a percent remaining without NADPH of 87.2%.

Consider `COc1ccc(N(C(=O)CCl)C(C(=O)NCCc2ccccc2)c2cccs2)cc1Cl` (stereo not drawn), for which the percent remaining with NADPH was determined as 1.54% and the percent remaining without NADPH stood at 39.7%.
